{"source": "patent US20120077802A1", "about": "(SUNOVION PHARMACEUTICALS INC., priority 2009, published 2012)"}
{"target": "T1, human histamine H3 receptor (Homo sapiens, UniProt Q9Y5N1)", "T1 construct": "host or cells: cells expressing the human H3 receptor", "T1 sequence (Q9Y5N1 whole entry)": "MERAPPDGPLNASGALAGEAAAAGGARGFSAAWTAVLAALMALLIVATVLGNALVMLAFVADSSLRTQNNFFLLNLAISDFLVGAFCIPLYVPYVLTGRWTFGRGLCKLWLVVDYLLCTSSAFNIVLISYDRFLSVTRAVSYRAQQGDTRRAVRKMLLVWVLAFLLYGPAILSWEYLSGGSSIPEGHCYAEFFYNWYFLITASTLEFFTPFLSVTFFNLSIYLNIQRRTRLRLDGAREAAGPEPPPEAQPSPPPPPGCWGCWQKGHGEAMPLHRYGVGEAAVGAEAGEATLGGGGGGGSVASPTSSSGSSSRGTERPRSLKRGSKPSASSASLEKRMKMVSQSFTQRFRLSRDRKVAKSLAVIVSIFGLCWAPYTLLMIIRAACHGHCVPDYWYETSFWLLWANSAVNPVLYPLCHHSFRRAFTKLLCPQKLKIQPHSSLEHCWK", "assay": "H3 GTPγS assay (SPA method), histamine H3 in vitro assay", "format": "biochemical", "settings": "GTPγ[35S] SPA, membranes of cells expressing human H3 receptor; in one embodiment HCl salts tested; read-out: Potency (functional potency as indicated by IC50)", "experimental": "(§1) H3 GTPγS assay (SPA method) was performed at EuroScreen (Belgium, ES-392-C) using conventional methods. Briefly, cells expressing the human histamine H3 receptor were homogenized in 15 mM Tris-HCl pH 7.5, 2 mM MgCl2, 0.3 mM EDTA, and 1 mM EGTA. Membranes were washed twice in the above tris buffer, collected by centrifugation (40,000×g, 25 min), and re-suspended in 75 mM Tris-HCl pH 7.5, 12.5 mM MgCl2, 0.3 mM EDTA, 1 mM EGTA, and 250 mM sucrose. Membranes were frozen in liquid nitrogen until use. On the day of the assay, membranes were thawed and diluted in assay buffer (20 mM HEPES pH 7.4, 100 mM NaCl, 10 μg/ml saponin, 1 mM MgCl2) to give 500 μg/ml and mixed (v/v) with GDP in assay buffer for a final GDP concentration of 10 μM and incubated on ice for at least 15 min. PVT-WGA beads (Amersham, RPNQ001) were diluted in assay buffer at 50 mg/mL and mixed with GTPγ[^35S] (Amersham, SJ1308) diluted in assay buffer to give ˜25,000 dpm/10 μL, and mixed vol/vol just before the start of the reaction. The reaction was started by adding 50 μL of test compound, 20 μL of the membranes:GDP mix, 10 μL of buffer, and 20 μL of the GTPγ[^35S]:beads mix in a 96 well plate Optiplate™ (PerkinElmer, 6005299) covered with topseal (TopCount™, PerkinElmer), mixed with an orbital shaker for 2 min, incubated for 1 hour at room temperature, centrifuged for 10 min at 2000 rpm, incubated for 1 h at room temperature, and counted for 1 min in a TopCount™ reader (PerkinElmer). Dose response curves and IC50 values (concentration to inhibit the reaction by 50%) were calculated by nonlinear regression using XLfit software (IDBS).\n(§2) For antagonists testing, 10 μL of a reference agonist (R-γ-Me-Histamine) instead of 10 μL buffer was added at a concentration corresponding to the EC80 (30 nM). Control ligands were R-γ-Me-Histamine (Tocris, 0569), Imetit (Sigma, I-135), Thioperamide (Tocris, 0644), and Clobenpropit (Tocris, 0754) diluted in assay buffer.\n(§3) The compounds provided herein were tested in the histamine H3 in vitro assay. In one embodiment, the respective HCl salts of the compounds provided herein were prepared using standard chemical procedures and tested in the histamine H3 in vitro assay.", "units": {"IC50": "nM"}}
{"compound": "4-(1′,2′,3′,5′,6′,7′,9′,9a′-Octahydro-3H-spiro[benzofuran-2,8′-pyrrolo[1,2-a]azepin]-5-yl)benzonitrile and 4-(1′,2′,3′,5′,6′,8′,9′,9a′-octahydro-3H-spiro[benzofuran-2,7′-pyrrolo[1,2-a]azepin]-5-yl)benzonitrile [95/95a]", "IC50": "≤ 100"}
{"compound": "5-((3,4-Dihydroisoquinolin-2(1H)-yl)methyl)-1′,2′,3′,5′,6′,7′,9′,9a′-octahydro-3H-spiro[benzofuran-2,8′-pyrrolo[1,2-a]azepine] and 5-((3,4-dihydroisoquinolin-2(1H)-yl)methyl)-1′,2′,3′,5′,6′,8′,9′,9a′-octahydro-3H-spiro[benzofuran-2,7′-pyrrolo[1,2-a]azepine] [97/97a]", "IC50": "≤ 10"}
{"compound": "5-((3,4-Dihydroisoquinolin-2(1H)-yl)methyl)-2′,3′,4′,6′,7′,9′,10′,10a′-octahydro-1′H,3H-spiro[benzofuran-2,8′-pyrido[1,2-a]azepine] and 5-((3,4-dihydroisoquinolin-2(1H)-yl)methyl)-2′,3′,4′,6′,7′,8′,10′,10a′-octahydro-1′H,3H-spiro[benzofuran-2,9′-pyrido[1,2-a]azepine] [88/88a]", "IC50": "≤ 100"}
{"compound": "5-(Imidazo[1,2-a]pyridin-6-yl)-1′,2′,3′,5′,6′,7′,9′,9a′-octahydro-3H-spiro[benzofuran-2,8′-pyrrolo[1,2-a]azepine] and 5-(imidazo[1,2-a]pyridin-6-yl)-1′,2′,3′,5′,6′,8′,9′,9a′-octahydro-3H-spiro[benzofuran-2,7′-pyrrolo[1,2-a]azepine] [96/96a]", "IC50": "≤ 10"}
{"compound": "5-(Morpholinomethyl)-2′,3′,4′,6′,7′,9′,10′,10a′-octahydro-1′H,3H-spiro[benzofuran-2,8′-pyrido[1,2-a]azepine] and 5-(morpholinomethyl)-2′,3′,4′,6′,7′,8′,10′,10a′-octahydro-1′H,3H-spiro[benzofuran-2,9′-pyrido[1,2-a]azepine] [87/87a]", "IC50": "≤ 100"}
{"compound": "5-Bromo-1′,2′,3′,5′,6′,7′,9′,9a′-octahydro-3H-spiro[benzofuran-2,8′-pyrrolo[1,2-a]azepine] and 5-bromo-1′,2′,3′,5′,6′,8′,9′,9a′-octahydro-3H-spiro[benzofuran-2,7′-pyrrolo[1,2-a]azepine] [94/94a]", "IC50": "≤ 1000"}
{"compound": "5-Bromo-2′,3′,4′,6′,7′,9′,10′,10a′-octahydro-1′H,3H-spiro[benzofuran-2,8′-pyrido[1,2-a]azepine] and 5-bromo-2′,3′,4′,6′,7′,8′,10′,10a′-octahydro-1′H,3H-spiro[benzofuran-2,9′-pyrido[1,2-a]azepine] [82/82a]", "IC50": "≤ 1000"}
{"compound": "c1ccc2c(c1)ncn2-c1ccc2c(c1)C[C@]1(CCCN(C3CCC3)CC1)O2", "note": "(single isomer, unassigned) [Compound 52, 5′-(1H-Benzo[d]imidazol-1-yl)-1-cyclobutyl-3′H-spiro[azepane-4,2′-benzofuran]]", "IC50": "≤ 100"}
{"compound": "c1ccc2c(c1)ncn2-c1ccc2c(c1)C[C@]1(CCCN(C3CCC3)CC1)O2", "note": "(single isomer, unassigned) [Compound 53, 5′-(1H-Benzo[d]imidazol-1-yl)-1-cyclobutyl-3′H-spiro[azepane-4,2′-benzofuran]]", "IC50": "≤ 100"}
{"compound": "Brc1ccc2c(c1)CC1(CCN3CCCCC3C1)O2", "note": "(single isomer, unassigned) [Compound 72, 5-Bromo-1′,3′,4′,6′,7′,8′,9′,9a′-octahydro-3H-spiro[benzofuran-2,2′-quinolizine]]", "IC50": "≤ 1000"}
{"compound": "Brc1ccc2c(c1)CC1(CCN3CCCCC3C1)O2", "note": "(single isomer, unassigned) [Compound 73, 5-Bromo-1′,3′,4′,6′,7′,8′,9′,9a′-octahydro-3H-spiro[benzofuran-2,2′-quinolizine]]", "IC50": "≤ 100"}
{"compound": "c1ccc2c(c1)CC1(CCN(C3CCC3)CC1)O2", "note": "[Compound 1, 1′-Cyclobutyl-3H-spiro[benzofuran-2,4′-piperidine]]", "IC50": "≤ 100"}
{"compound": "CC(C1CCC1)N1CCC2(CC1)Cc1ccccc1O2", "note": "(centres unmarked) [Compound 4, 1′-(1-Cyclobutylethyl)-3H-spiro[benzofuran-2,4′-piperidine]]", "IC50": "≤ 1000"}
{"compound": "CC(=O)Nc1ccc(-c2ccc3c(c2)CC2(CCN(C4CCC4)CC2)O3)cc1", "note": "[Compound 6, N-(4-(1′-Cyclobutyl-3H-spiro[benzofuran-2,4′-piperidine]-5-yl)phenyl)acetamide]", "IC50": "≤ 10"}
{"compound": "c1cc2cc(-c3ccc4c(c3)CC3(CCN(C5CCC5)CC3)O4)ccc2[nH]1", "note": "[Compound 7, 1′-Cyclobutyl-5-(1H-indol-5-yl)-3H-spiro[benzofuran-2,4′-piperidine]]", "IC50": "≤ 100"}
{"compound": "CN1CCC(N2CCC3(CC2)Cc2cc(-c4ccc(C#N)cc4)ccc2O3)CC1", "note": "[Compound 8, 4-(1′-(1-Methylpiperidin-4-yl)-3H-spiro[benzofuran-2,4′-piperidine]-5-yl)benzonitrile]", "IC50": "≤ 100"}
{"compound": "CC(=O)Nc1ccc(-c2ccc3c(c2)CC2(CCN(C4CCN(C)CC4)CC2)O3)cc1", "note": "[Compound 9, N-(4-(1′-(1-Methylpiperidin-4-yl)-3H-spiro[benzofuran-2,4′-piperidine]-5-yl)phenyl)acetamide]", "IC50": "≤ 100"}
{"compound": "CN1CCC(N2CCC3(CC2)Cc2cc(-c4ccc5[nH]ccc5c4)ccc2O3)CC1", "note": "[Compound 10, 5-(1H-Indol-5-yl)-1′-(1-methylpiperidin-4-yl)-3H-spiro[benzofuran-2,4′-piperidine]]", "IC50": "≤ 1000"}
{"compound": "CC(C1CCC1)N1CCC2(CC1)Cc1cc(-c3ccc(C#N)cc3)ccc1O2", "note": "(centres unmarked) [Compound 11, 4-(1′-(1-Cyclobutylethyl)-3H-spiro[benzofuran-2,4′-piperidine]-5-yl)benzonitrile]", "IC50": "≤ 10"}
{"compound": "CC(=O)Nc1ccc(-c2ccc3c(c2)CC2(CCN(C(C)C4CCC4)CC2)O3)cc1", "note": "(centres unmarked) [Compound 12, N-(4-(1′-(1-Cyclobutylethyl)-3H-spiro[benzofuran-2,4′-piperidine]-5-yl)phenyl)acetamide]", "IC50": "≤ 10"}
{"compound": "CC(C1CCC1)N1CCC2(CC1)Cc1cc(-c3ccc4[nH]ccc4c3)ccc1O2", "note": "(centres unmarked) [Compound 13, 1′-(1-Cyclobutylethyl)-5-(1H-indol-5-yl)-3H-spiro[benzofuran-2,4′-piperidine]]", "IC50": "≤ 100"}
{"compound": "NCc1ccc(-c2ccc3c(c2)CC2(CCN(C4CCC4)CC2)O3)cc1", "note": "[Compound 14, (4-(1′-Cyclobutyl-3H-spiro[benzofuran-2,4′-piperidine]-5-yl)phenyl)methanamine]", "IC50": "≤ 100"}
{"compound": "CN1CCC(N2CCC3(CC2)Cc2cc(-c4ccc(CN)cc4)ccc2O3)CC1", "note": "[Compound 15, (4-(1′-(1-Methylpiperidin-4-yl)-3H-spiro[benzofuran-2,4′-piperidine]-5-yl)phenyl)methanamine]", "IC50": "≤ 100"}
{"compound": "CC(C1CCC1)N1CCC2(CC1)Cc1cc(-c3ccc(CN)cc3)ccc1O2", "note": "(centres unmarked) [Compound 16, (4-(1′-(1-Cyclobutylethyl)-3H-spiro[benzofuran-2,4′-piperidine]-5-yl)phenyl)methanamine]", "IC50": "≤ 10"}
{"compound": "N#Cc1ccc(-c2ccc3c(c2)CC2(CCN(C4CCCC4)CC2)O3)cc1", "note": "[Compound 17, 4-(1′-Cyclopentyl-3H-spiro[benzofuran-2,4′-piperidine]-5-yl)benzonitrile]", "IC50": "≤ 100"}
{"compound": "CC1CCCC1N1CCC2(CC1)Cc1cc(-c3ccc(C#N)cc3)ccc1O2", "note": "(centres unmarked) [Compound 18]", "IC50": "≤ 100"}
{"compound": "N#Cc1ccc(-c2ccc3c(c2)CC2(CCN(C4CCOCC4)CC2)O3)cc1", "note": "[Compound 19, 4-(1′-(Tetrahydro-2H-pyran-4-yl)-3H-spiro[benzofuran-2,4′-piperidine]-5-yl)benzonitrile]", "IC50": "≤ 100"}
{"compound": "N#Cc1ccc(-c2ccc3c(c2)CC2(CCN(C4CCCCC4)CC2)O3)cc1", "note": "[Compound 20, 4-(1′-Cyclohexyl-3H-spiro[benzofuran-2,4′-piperidine]-5-yl)benzonitrile]", "IC50": "≤ 100"}
{"compound": "N#Cc1ccc(-c2ccc3c(c2)CC2(CCN(CC4CCC4)CC2)O3)cc1", "note": "[Compound 21, 4-(1′-(Cyclobutylmethyl)-3H-spiro[benzofuran-2,4′-piperidine]-5-yl)benzonitrile]", "IC50": "≤ 1000"}
{"compound": "CC(C)N1CCC2(CC1)Cc1cc(-c3ccc(C#N)cc3)ccc1O2", "note": "[Compound 22, 4-(1′-Isopropyl-3H-spiro[benzofuran-2,4′-piperidine]-5-yl)benzonitrile]", "IC50": "≤ 10"}
{"target": "T1, human histamine H3 receptor", "assay": "H3 GTPγS assay (SPA method), histamine H3 in vitro assay", "format": "biochemical", "settings": "histamine H3 in vitro assay; read-out: IC50 values", "experimental": "as §1, §2, §3", "units": {"IC50": "nM"}}
{"compound": "CN1CCC(N2CCC3(CC2)Cc2ccccc2O3)CC1", "note": "[Compound 2, 1′-(1-Methylpiperidin-4-yl)-3H-spiro[benzofuran-2,4′-piperidine]]", "IC50": "> 1000"}
{"compound": "c1ccc2c(c1)CC1(CCN(Cc3c[nH]cn3)CC1)O2", "note": "[Compound 3, 1′-((1H-Imidazol-4-yl)methyl)-3H-spiro [benzofuran-2,4′-piperidine]]", "IC50": "> 1000"}
